Assay results reported in ChEMBL document CHEMBL1155862, “High affinity conformationally constrained nociceptin/orphanin FQ(1-13) amide analogues” (J Med Chem, 2008).
Peptide text beside a SMILES is read from it.

What was measured:
Nociceptin receptor [1] = target: T1, Nociceptin receptor (Homo sapiens, UniProt P41146); assay: Agonist activity at human NOP receptor expressed in CHO cells assessed as stimulation of [35S]GTPgammaS binding; format: functional, cell-based
Nociceptin receptor [2] = target: T1, Nociceptin receptor; assay: Displacement of [3H]N/OFQ from human NOP receptor expressed in CHO cells; format: cell-based
Nociceptin receptor [3] = target: T1, Nociceptin receptor; assay: Agonist activity at human NOP receptor expressed in CHO cells assessed as stimulation of [35S]GTPgammaS binding relative to nociceptin/orphanin FQ (1-13)NH2 peptide; format: functional, cell-based
Nociceptin receptor [4] = target: T1, Nociceptin receptor; assay: Binding affinity to human NOP receptor
Nociceptin receptor [5] = target: T1, Nociceptin receptor; assay: Agonist activity at human NOP receptor by [35S]GTPgammaS binding assay; format: functional

T1 sequence (P41146 whole entry): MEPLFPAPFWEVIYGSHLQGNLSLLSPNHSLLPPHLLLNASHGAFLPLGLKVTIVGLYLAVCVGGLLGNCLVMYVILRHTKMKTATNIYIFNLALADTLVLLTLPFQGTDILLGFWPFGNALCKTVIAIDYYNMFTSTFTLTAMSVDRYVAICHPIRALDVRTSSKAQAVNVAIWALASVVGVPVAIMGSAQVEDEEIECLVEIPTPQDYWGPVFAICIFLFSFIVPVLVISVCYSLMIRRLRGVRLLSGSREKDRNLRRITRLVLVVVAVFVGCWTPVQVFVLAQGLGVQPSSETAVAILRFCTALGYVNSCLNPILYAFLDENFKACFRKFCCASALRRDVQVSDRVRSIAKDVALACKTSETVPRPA

Compound	EC50 (Nociceptin receptor [1])	Ki (Nociceptin receptor [2])	Activity (Nociceptin receptor [3])	further results
C[C@H](NC(=O)[C@@H]1CCCCNC(=O)C[C@@H](NC(=O)CNC(=O)[C@@H](NC(=O)[C@H](Cc2ccccc2)NC(=O)CNC(=O)CNC(=O)[C@@H](N)Cc2ccccc2)[C@@H](C)O)C(=O)N[C@@H](CCCNC(=N)N)C(=O)N[C@@H](CCCCN)C(=O)N1)C(=O)N[C@@H](CCCNC(=N)N)C(=O)N[C@@H](CCCCN)C(N)=O	1.6 nM	0.27 nM	–	–
C[C@H](NC(=O)[C@H](CCCCN)NC(=O)[C@H](CCCCN)NC(=O)[C@H](CCCN=C(N)N)NC(=O)[C@@H](CC(=O)O)NC(=O)CNC(=O)[C@@H](NC(=O)[C@H](Cc1ccccc1)NC(=O)CNC(=O)CNC(=O)[C@@H](N)Cc1ccccc1)[C@@H](C)O)C(=O)N[C@@H](CCCN=C(N)N)C(=O)N[C@@H](CCCCN)C(N)=O	106 nM	1.79 nM	–	–
C[C@H](NC(=O)[C@@H]1CCCCNC(=O)C[C@H](NC(=O)CNC(=O)[C@@H](NC(=O)[C@H](Cc2ccccc2)NC(=O)CNC(=O)CNC(=O)[C@@H](N)Cc2ccccc2)[C@@H](C)O)C(=O)N[C@@H](CCCNC(=N)N)C(=O)N[C@@H](CCCCN)C(=O)N1)C(=O)N[C@@H](CCCNC(=N)N)C(=O)N[C@@H](CCCCN)C(N)=O	–	–	92%	–
C[C@H](NC(=O)[C@H](CCCCN)NC(=O)[C@H](CCCCN)NC(=O)[C@H](CCCNC(=N)N)NC(=O)[C@@H](CC(=O)O)NC(=O)CNC(=O)[C@@H](NC(=O)[C@H](Cc1ccccc1)NC(=O)CNC(=O)CNC(=O)[C@@H](N)Cc1ccccc1)[C@@H](C)O)C(=O)N[C@@H](CCCNC(=N)N)C(=O)N[C@@H](CCCCN)C(N)=O	–	–	100%	–
C[C@H](NC(=O)[C@@H]1CSSC[C@H](NC(=O)[C@@H](NC(=O)[C@H](Cc2ccccc2)NC(=O)CNC(=O)CNC(=O)[C@@H](N)Cc2ccccc2)[C@@H](C)O)C(=O)N[C@@H](C)C(=O)N[C@@H](CCCNC(=N)N)C(=O)N[C@@H](CCCCN)C(=O)N1)C(=O)N[C@@H](CCCNC(=N)N)C(=O)N[C@@H](CCCCN)C(N)=O (HELM PEPTIDE1{F.G.G.F.T.C.A.R.K.C.A.R.K.[am]}$PEPTIDE1,PEPTIDE1,6:R3-10:R3$$$V2.0)	–	–	–	Ki (Nociceptin receptor [4]): 0.83 nM
C[C@H](NC(=O)[C@@H]1CCCCNC(=O)C[C@H](NC(=O)[C@@H](NC(=O)[C@H](Cc2ccccc2)NC(=O)CNC(=O)CNC(=O)[C@@H](N)Cc2ccccc2)[C@@H](C)O)C(=O)N[C@@H](C)C(=O)N[C@@H](CCCN=C(N)N)C(=O)N[C@@H](CCCCN)C(=O)N1)C(=O)N[C@@H](CCCN=C(N)N)C(=O)N[C@@H](CCCCN)C(N)=O (HELM PEPTIDE1{F.G.G.F.T.D.A.R.K.K.A.R.K.[am]}$PEPTIDE1,PEPTIDE1,6:R3-10:R3$$$V2.0)	4.12 nM	0.34 nM	–	–
C[C@H](NC(=O)[C@@H]1CCCCNC(=O)C[C@H](NC(=O)[C@@H](NC(=O)[C@H](Cc2ccccc2)NC(=O)CNC(=O)CNC(=O)[C@@H](N)Cc2ccccc2)[C@@H](C)O)C(=O)N[C@@H](C)C(=O)N[C@@H](CCCNC(=N)N)C(=O)N[C@@H](CCCCN)C(=O)N1)C(=O)N[C@@H](CCCNC(=N)N)C(=O)N[C@@H](CCCCN)C(N)=O (HELM PEPTIDE1{F.G.G.F.T.D.A.R.K.K.A.R.K.[am]}$PEPTIDE1,PEPTIDE1,6:R3-10:R3$$$V2.0)	–	–	80%	–
C[C@H](NC(=O)[C@@H]1CSSC[C@H](NC(=O)CNC(=O)[C@@H](NC(=O)[C@H](Cc2ccccc2)NC(=O)CNC(=O)CNC(=O)[C@@H](N)Cc2ccccc2)[C@@H](C)O)C(=O)N[C@@H](CCCN=C(N)N)C(=O)N[C@@H](CCCCN)C(=O)N1)C(=O)N[C@@H](CCCN=C(N)N)C(=O)N[C@@H](CCCCN)C(N)=O (HELM PEPTIDE1{F.G.G.F.T.G.C.R.K.C.A.R.K.[am]}$PEPTIDE1,PEPTIDE1,7:R3-10:R3$$$V2.0)	–	–	–	Ki (Nociceptin receptor [4]): 0.1 nM; EC50 (Nociceptin receptor [5]): 0.69 nM
H-FGGFTDARKKARK-NH2	22.3 nM	0.54 nM	122%	–
